US20260256771A1, “GALUNISERTIB FOR USE IN THE TREATMENT OF ANDROGENIC ALOPECIA” (SAÚDE VIÁVEL, S.A., priority 2022, published 2026)

How the values were obtained:
[1] = Mass spectrometry of skin biopsies; assay type: in vivo, mouse; conditions: skin retrieved at day 14, N=3, mean±SD
Method: For mass spectrometry of skin biopsies, dorsal skin of mice under 10 μM and 100 μM galunisertib topical treatment for 14 days is collected after anesthesia (Ketamine 150 mg/kg+Medetomidine 2 mg/kg) and perfusion with PBS. Skin samples are snap frozen and stored at −80° C. until being sent for mass spec analysis by Cyprotex. Skin samples from N=3 animals per condition are homogenized 1:4 in mouse plasma, then quantified against a mouse plasma calibration curve. Analytical runs meeting calibration standard and QC acceptance criteria.

[2] = tested on: LEF1; assay: Immunohistochemistry of cryo-sectioned HFOCs: LEF1; assay type: cell-based, human; conditions: Galunisertib 48 h vs untreated
Text: (§1) Hair growth percentages is normalized to day 0.
FIG. 6. Galunisertib improves the WNT signaling in the bulb epithelial compartment. a) Representative IHC images of tissue sections of HFOCs with and without Galunisertib and stained for LEF1 (red) and β-catenin (green). Nuclei were counterstained with DAPI (blue). Scale bar, 100 μm. b,e) Adjusted intensity levels of LEF1 and β-catenin per DP and HB (bulb epithelium) areas, as measured in tissue sections from HFOCs with and without Galunisertib. All values are mean±SD of HFOCs established from n=4 donors (n>8 HFs per condition). ns p≥0.05, *p≤0.05 by unpaired t-test.
(§2) For immunohistochemistry, 2-day HFOCs are used for immunohistochemistry analysis. Briefly, HFs were embedded on a drop of OCT and stored at −80° C. 8 μm cryosections are air-dried and fixed in 4% PFA (for TGFβ2, cleavage Caspase 3, p-SMAD2 and KI67 immunostainings) or cold acetone (for LEF1 and β-catenin immunostaining). Following 2×5 min rinse with PBS, microsections are permeabilized 2× for 10 min with PBS+0.3% Triton X 100 (PBS-T) and then blocked with PBS+10% fetal bovine serum (FBS) for 1 hour at room temperature. Antibodies are diluted in PBS-T+1% FBS and incubation done overnight at 4° C. […]

[3] = tested on: phosphorylated SMAD2 (p-SMAD2); assay: Western blot of phospho-SMAD2 in hair bulbs of HFOCs; assay type: cell-based, human; conditions: HFOCs treated with DHT or DHT+galunisertib for 72 h
Method: For western blot, hair bulbs are dissected from HFOCs treated with DMSO, DHT and Galunisertib for 72 h. Upon rinse in PBS, hair bulbs are lysed in Laemmli buffer (without bromophenol blue) with Halt Protease Inhibitor Cocktail and Halt Phosphatase Inhibitor Cocktail, and lysates are sonicated. Lysates from 10 hair bulbs are used for each condition tested. Total extracts are then loaded in SDS-polyacrylamide gels and transferred onto nitrocellulose membranes for western blot analysis. Membranes are blocked during 1 h with TBS+5% BSA. Primary and secondary antibodies are diluted in TBS+2% BSA accordingly to Supplementary Table 1. Signal is detected using Clarity Western ECL Substrate reagent. A GS-800 calibrated densitometer with Quantity One 1-D Analysis Software 4.6 (Bio-Rad Laboratories) is used for quantitative analysis of protein levels.
In addition, only anagen hair follicles are used.
as §1

[4] = tested on: Ki67 proliferation marker; assay: Immunohistochemistry of cryo-sectioned HFOCs: Ki67; assay type: cell-based, human; conditions: HFOCs treated with Galunisertib for 48 h vs untreated
Text: as §1
FIG. 5. Galunisertib improves cell proliferation and the WNT signaling in the bulb epithelial compartment. a) Representative IHC images of tissue sections of HFOCs untreated and treated with Galunisertib and stained for KI67 and cleaved caspase 3. Nuclei were counterstained with DAPI. Scale bar, 100 μm. b,c) Adjusted intensity levels of KI67 and cleaved caspase 3 per DP and HB (bulb epithelium) areas, respectively, as measured in tissue sections from HFOCs with and without Galunisertib. All values are mean±SD of HFOCs established from n=8 donors (n>16 HFs per condition). ns p≥0.05, *p≤0.05 by unpaired t-test.
as §2

Compound: Cc1cccc(-c2nn3c(c2-c2ccnc4ccc(C(N)=O)cc24)CCC3)n1 [Galunisertib]
- concentration of compound in skin biopsies ([1]; topical 10 μM galunisertib): 1.6 ± 0.7 µM
- concentration of compound in skin biopsies ([1]; topical 100 μM galunisertib): 9.6 ± 0.6 µM
- LEF1 levels in the bulb epithelium ([2]; bulb epithelium): increased levels
- LEF1 levels in the DP ([2]; dermal papilla): not significantly upregulated
- canonical TGFβ signaling activation (phospho-SMAD2 protein levels) [3]: blocks TGFβ activation
- number of bulb epithelial cells staining positive for Ki67 [4]: increased number
- Ki67 fluorescence intensity levels ([4]; bulb epithelium): higher
